# Results as given in PubChem BioAssay AID2060902 (Molecular Pharmacology Branch, DTP, NCI, 2025).
# Tested on: 485368-065-R3-J5-PDC spheroids with HUVEC/MSC, viability
# Assay: Anticancer human tumor 485368-065-R3-J5-PDC patient-derived pancreatic carcinoma cell line growth inhibition [RAS]
# Details: for IC50: curve of first compound; for viability, T/C: stronger effect = lower value
# Excerpt: RAS pathway inhibitors in Combinations in Complex Spheroids
# A high-throughput screen of multi-cell type tumor spheroids was designed to identify active combinations of RAS pathway inhibitors and targeted small molecules. Complex spheroids include a stromal component modeled by human endothelial cells (HUVEC) and fibroblasts modeled by human mesenchymal stem cells (MSCs). The concentration ranges selected for each drug and investigational agent were based upon clinically achievable concentrations if the clinical Cmax of the agent was known.
# Compounds. The drugs and investigational agents: abemaciclib (NSC768073), cobimetinib (NSC768068), divarasib (GDC6063, NSC841802), docetaxel (NSC628503), GDC-1971 (RLY-1971, NSC841576), gemcitabine (NSC613327), inavolisib (NSC800729), ipatasertib (NSC767898), KB-0742 (NSC834161), MRTX-1133 (NSC836407), osimertinib (NSC779217), RMC-4630 (NSC839698), RMC-6236 (NSC851965), RMC-6291 (NSC852671), Ro-3306 (NSC812927), sapanisertib (NSC764658), SN-38 (NSC673596), staurosporine (NSC755774), SY5609 (NSC837396), and tovorafenib (DAY101, NSC766906), were obtained from the National Cancer Institute (NCI) Developmental Therapeutics Program Chemical Repository. The FDA-approved anticancer drug set is available from the NCI Developmental Therapeutics Program. […] The stock solutions were prepared in dimethyl sulfoxide (DMSO, Sigma-Aldrich, St. Louis, MO, cat. D2650) at 800-fold the tested concentration and stored at -70 degrees C prior to their use. All drugs and investigational agents were tested over a range starting from a high concentration at or near the clinical Cmax and decreasing in half-log increments. If the clinical Cmax for an agent had not been determined, the highest concentration tested was 10 microM.
# Cell Culture. All cells were maintained in an incubator at 37 degrees C and 5% CO2 with 95% humidity. The PDC lines were cultured according to standard operating procedures established by the NCI PDMR. All PDCs were thawed and cultured in Matrigel-coated flasks prepared with a working solution of 1X Ham's F-12 nutrient mix, without supplementation (Invitrogen, Waltham, MA, cat. 11765054), 100 U/mL penicillin-streptomycin (Invitrogen, cat. 15140122), and 2.5% Matrigel (Corning Inc., Corning, NY, cat. 354248) for the first three passages. The 362531-283-R-J2-PDC and 782815-120-R-J1-PDC lines were cultured in 6C/Colon 1B media, which includes advanced DMEM/F-12 (Thermo Fisher Scientific, cat. 12634028), 10 mM HEPES (Thermo Fisher Scientific, cat. 15630080), 1X GlutaMAX supplement (Thermo Fisher Scientific, cat. 35050061), 0.1 mg/mL primocin (InvivoGen, San Diego, CA, cat. ant-pm-2), 10% defined fetal bovine serum, heat inactivated (HyClone Laboratories Inc., Logan, UT, cat. SH30070.03HI), 50% L-WRN conditioned media (ATCC, cat. CRL-3276), 1.25 mM N-Acetyl-L-cysteine (Sigma-Aldrich, cat. A9165), 10 mM nicotinamide (Sigma-Aldrich, cat. N0636), 1X B-27 supplement (Thermo Fisher Scientific, cat. 17504044), 1X N-2 supplement (Thermo Fisher Scientific, cat. 17502048), 50 ng/mL human EGF (Thermo Fisher Scientific, cat. PHG0311), and 10 microM Y-27632 dihydrochloride (Tocris Bioscience, cat. 1254). The K12877-001-R-J1-PDC line was cultured in 6I media, which includes all 6C/Colon 1B media plus 10 ng/mL human FGF-10 (PeproTech, cat. 100-26), 1 ng/mL human FGF-2 (PeproTech, cat. 100-18B), 1 µM prostaglandin E2 (Tocris Bioscience, cat. 2296), […] hydrocortisone (Sigma-Aldrich, cat. H4001), and […] bovine insulin (Sigma-Aldrich, cat. I6634). The K86415-001-R-J1-PDC line was cultured in 6D media, which includes all 6C/Colon 1B media components minus the L-WRN conditioned media. The 485176-168-R4-J1-PDC was cultured in PANC media, which includes all 6C/Colon 1B media plus 100 ng/mL human FGF-10 (PeproTech, cat. 100-26), 500 nM SB-431542 (Selleckchem, cat. S1067), and 10 nM gastrin (Tocris Bioscience, cat. 3006). […]
# 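Also: spheroids exposed to agents for seven days before readout.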
compound,measurement,setting,value
C[C@@H](NC(=O)c1ncnc(N)c1Cl)c1ncc(C(=O)Nc2cc(C(F)(F)F)c(Cl)cn2)s1 + C#Cc1c(F)ccc2cc(O)cc(-c3ncc4c(N5CC6CCC(C5)N6)nc(OCC56CCCN5CC(F)C6)nc4c3F)c12,IC50,second compound 0.0316 µM,> 10000 nM
same,IC50,second compound 0.1 µM,> 10000 nM
same,IC50,second compound 0.316 µM,> 10000 nM
same,IC50,second compound 1 µM,> 10000 nM
same,IC50,second compound 3.16 µM,> 10000 nM
same,IC50,second compound 10 µM,528 nM
same,"viability, T/C","second compound 0.0316 µM, first compound 0.0316 µM",103%
same,"viability, T/C","second compound 0.0316 µM, first compound 0.1 µM",105%
same,"viability, T/C","second compound 0.0316 µM, first compound 0.316 µM",114%
same,"viability, T/C","second compound 0.0316 µM, first compound 1 µM",114%
same,"viability, T/C","second compound 0.0316 µM, first compound 3.16 µM",98%
same,"viability, T/C","second compound 0.0316 µM, first compound 10 µM",69.7%
same,"viability, T/C","second compound 0.1 µM, first compound 0.0316 µM",111%
same,"viability, T/C","second compound 0.1 µM, first compound 0.1 µM",115%
same,"viability, T/C","second compound 0.1 µM, first compound 0.316 µM",113%
same,"viability, T/C","second compound 0.1 µM, first compound 1 µM",113%
same,"viability, T/C","second compound 0.1 µM, first compound 3.16 µM",96.5%
same,"viability, T/C","second compound 0.1 µM, first compound 10 µM",57.9%
same,"viability, T/C","second compound 0.316 µM, first compound 0.0316 µM",101%
same,"viability, T/C","second compound 0.316 µM, first compound 0.1 µM",104%
same,"viability, T/C","second compound 0.316 µM, first compound 0.316 µM",105%
same,"viability, T/C","second compound 0.316 µM, first compound 1 µM",100%
same,"viability, T/C","second compound 0.316 µM, first compound 3.16 µM",93.2%
same,"viability, T/C","second compound 0.316 µM, first compound 10 µM",75.2%
same,"viability, T/C","second compound 1 µM, first compound 0.0316 µM",109%
same,"viability, T/C","second compound 1 µM, first compound 0.1 µM",106%
same,"viability, T/C","second compound 1 µM, first compound 0.316 µM",104%
same,"viability, T/C","second compound 1 µM, first compound 1 µM",106%
same,"viability, T/C","second compound 1 µM, first compound 3.16 µM",96%
same,"viability, T/C","second compound 1 µM, first compound 10 µM",69.9%
same,"viability, T/C","second compound 3.16 µM, first compound 0.0316 µM",97.6%
same,"viability, T/C","second compound 3.16 µM, first compound 0.1 µM",98.6%
same,"viability, T/C","second compound 3.16 µM, first compound 0.316 µM",94.5%
same,"viability, T/C","second compound 3.16 µM, first compound 1 µM",93.3%
same,"viability, T/C","second compound 3.16 µM, first compound 3.16 µM",89.1%
same,"viability, T/C","second compound 3.16 µM, first compound 10 µM",62%
same,"viability, T/C","second compound 10 µM, first compound 0.0316 µM",53.5%
same,"viability, T/C","second compound 10 µM, first compound 0.1 µM",50.5%
same,"viability, T/C","second compound 10 µM, first compound 0.316 µM",50.3%
same,"viability, T/C","second compound 10 µM, first compound 1 µM",46%
same,"viability, T/C","second compound 10 µM, first compound 3.16 µM",52.6%
same,"viability, T/C","second compound 10 µM, first compound 10 µM",46.9%
O=C(c1ccc(F)c(F)c1Nc1ccc(I)cc1F)N1CC(O)([C@@H]2CCCCN2)C1 + CCn1c(-c2cc(N3CCN(C)CC3)cnc2C(C)OC)c2c3cc(ccc31)-c1csc(n1)CC(NC(=O)C1CC1C)C(=O)N1CCCC(N1)C(=O)OCC(C)(C)C2,IC50,second compound 0.000949 µM,< 3.16 nM
same,IC50,second compound 0.003 µM,< 3.16 nM
same,IC50,second compound 0.00949 µM,< 3.16 nM
same,IC50,second compound 0.03 µM,< 3.16 nM
same,IC50,second compound 0.0949 µM,< 3.16 nM
same,IC50,second compound 0.3 µM,< 3.16 nM
same,"viability, T/C","second compound 0.000949 µM, first compound 0.00316 µM",32.9%
same,"viability, T/C","second compound 0.000949 µM, first compound 0.01 µM",29.9%
same,"viability, T/C","second compound 0.000949 µM, first compound 0.0316 µM",22.8%
same,"viability, T/C","second compound 0.000949 µM, first compound 0.1 µM",17.6%
same,"viability, T/C","second compound 0.000949 µM, first compound 0.316 µM",12.8%
same,"viability, T/C","second compound 0.000949 µM, first compound 1 µM",3.33%
same,"viability, T/C","second compound 0.003 µM, first compound 0.00316 µM",19.3%
same,"viability, T/C","second compound 0.003 µM, first compound 0.01 µM",20.3%
same,"viability, T/C","second compound 0.003 µM, first compound 0.0316 µM",14.9%
same,"viability, T/C","second compound 0.003 µM, first compound 0.1 µM",10.8%
same,"viability, T/C","second compound 0.003 µM, first compound 0.316 µM",4.68%
same,"viability, T/C","second compound 0.003 µM, first compound 1 µM",1.33%
same,"viability, T/C","second compound 0.00949 µM, first compound 0.00316 µM",16.1%
same,"viability, T/C","second compound 0.00949 µM, first compound 0.01 µM",12.9%
same,"viability, T/C","second compound 0.00949 µM, first compound 0.0316 µM",10.6%
same,"viability, T/C","second compound 0.00949 µM, first compound 0.1 µM",5.68%
same,"viability, T/C","second compound 0.00949 µM, first compound 0.316 µM",1.77%
same,"viability, T/C","second compound 0.00949 µM, first compound 1 µM",1.26%
same,"viability, T/C","second compound 0.03 µM, first compound 0.00316 µM",10.3%
same,"viability, T/C","second compound 0.03 µM, first compound 0.01 µM",8.49%
same,"viability, T/C","second compound 0.03 µM, first compound 0.0316 µM",6.41%
same,"viability, T/C","second compound 0.03 µM, first compound 0.1 µM",2.18%
same,"viability, T/C","second compound 0.03 µM, first compound 0.316 µM",1.53%
same,"viability, T/C","second compound 0.03 µM, first compound 1 µM",1.44%
same,"viability, T/C","second compound 0.0949 µM, first compound 0.00316 µM",6.98%
same,"viability, T/C","second compound 0.0949 µM, first compound 0.01 µM",5.08%
same,"viability, T/C","second compound 0.0949 µM, first compound 0.0316 µM",3%
same,"viability, T/C","second compound 0.0949 µM, first compound 0.1 µM",1.9%
same,"viability, T/C","second compound 0.0949 µM, first compound 0.316 µM",1.88%
same,"viability, T/C","second compound 0.0949 µM, first compound 1 µM",1.97%
same,"viability, T/C","second compound 0.3 µM, first compound 0.00316 µM",6.37%
same,"viability, T/C","second compound 0.3 µM, first compound 0.01 µM",3.9%
same,"viability, T/C","second compound 0.3 µM, first compound 0.0316 µM",2.16%
same,"viability, T/C","second compound 0.3 µM, first compound 0.1 µM",2.03%
same,"viability, T/C","second compound 0.3 µM, first compound 0.316 µM",2.03%
same,"viability, T/C","second compound 0.3 µM, first compound 1 µM",2.14%
